Experimental data from patent US20050209289A1, “Method for vascular dysregulation” (priority 2004, published 2005).

Tested on: clinical patients
Assay: Clinical patient encounters treated with vascular dysregulation techniques (trigger elimination plus calcium channel blocker and/or antiemetic); case reports
Type: in vivo, human
Conditions: person
Procedure: At Step 36, a personal and family medical history of a patient is collected during a patient encounter. […] At Step 42, a list of environmental triggers for the one or more determined dysregulation pathways to be avoided is prepared for the patient. At Step 44, a list of medical triggers for the one or more determined dysregulation pathway to be avoided is prepared for the patient. At Step 46, the patient's current medication profile, if any, is adjusted for the one or more determined dysregulation pathways, thereby treating the medical condition via the one or more determined dysregulation pathways.
At Step 50, a test is conducted to determine whether a patient has a chronic medical condition and has one or more common symptoms based on a personal and medical history collected during a patient encounter. […] The vascular dysregulation techniques include eliminating environmental triggers, eliminating medical triggers and adjusting patient's current medication profile.

COc1ccc([C@@H]2Sc3ccccc3N(CCN(C)C)C(=O)[C@@H]2OC(C)=O)cc1 [diltiazem]
Cold toes and fingers, Patient E (cold toes and fingers, migraine headaches, off caffeine): obtained warm fingers and toes
Severe headaches and insomnia, Patient H (coffee and diet sodas eliminated, daily dose): severe headaches were eliminated and they are sleeping soundly
Singing voice (unexpected effect), Patient E (off caffeine, presumed secondary to decreased post-nasal drip and nasal congestion): significantly stronger singing voice
